According to patent US20130040998A1, “FLUORINATED HDAC INHIBITORS AND USES THEREOF” (Dana-Farber Cancer Institute, Inc., priority 2010, published 2013):

How the values were obtained:
[1] = test system: class IIa HDACs (HDAC4, HDAC5, HDAC7, HDAC9); assay: HDAC inhibition assay, class IIa HDAC enzymes; type: biochemical, human
Protocol: (§1) The inventive compounds may be tested in any assay for HDAC inhibitor activity. In certain embodiments, the assay for determining the inhibitory effect of an inventive compound on an HDAC protein comprising: incubating the HDAC protein with a substrate of formula: […]
(§2) in the presence of an inventive compound; and determining the activity of the HDAC protein by monitoring the release of 7-amino-4-methylcoumarin after cleavage by trypsin.
(§3) In certain embodiments, the assay is performed in water. In other embodiments, the assay is performed in an organic solvent. In still other embodiments, the assay in performed in a buffer. In certain embodiments, the buffer is an assay buffer. In other embodiments, the assay buffer comprises HEPES, KCl, Tween-20, BSA, and TCEP. In further embodiments, the assay buffer is […] HEPES, 100 mM KCl, 0.001% Tween-20, 0.05% BSA, 200 µM TCEP, pH 7.4. In certain embodiments, the assay is performed at approximately pH 5.0-6.0. In certain embodiments, the assay is performed at approximately pH 5.0-9.0. In certain embodiments, the assay is performed at a pH optimum for an HDAC enzyme to function.

HDAC1-3 = assay: HDAC inhibition assay, HDAC1-3; type: biochemical, human; settings: fluorinated MAZ1702 versus MAZ1704
Protocol: as §1, §2, §3

[2] = difference versus unsubstituted cinnamic hydroxamic acid; Dessolin et al. 1970; cited from earlier work

| Compound | affinity for class IIa HDAC enzymes compared to MAZ1704 ([1]; FIG. 2 legend, in words) | binds fold better to class IIa enzymes ([1]; fluorinated MAZ1702 versus MAZ1704 (FIG. 2)) | fold increase in activity for HDAC1-3 (HDAC1-3) | pKa, units lower than unsubstituted cinammic hydroxamic acid [2] | fold increase in activity for class IIa enzymes ([1]; direct comparison with cinnamic hydroxamic acid) |
| --- | --- | --- | --- | --- | --- |
| O=C(NO)/C(F)=C/c1ccccc1 [MAZ1702] | significantly increased affinity | 3.5-5 fold | 1-1.4 fold | – | – |
| O=C(NO)C(F)=Cc1ccccc1 [α-fluoro cinnamic hydroxamic acid] | – | – | – | approximately 0.9 units | 5-10 fold |
